Measured values taken from ChEMBL document CHEMBL1201862, “PubChem BioAssay data set” (2004).
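Compound exposure: 48 hours, 5 concentrations, 96-well plates. GI50 = concentration required for 50% inhibition of growth.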 Active and inactive are the calls of the source. Cut-off read from the data, not from the text of the source: active = GI50 up to about 1.1 µM and inactive = higher.

How the values were obtained:
Assay in all cases: NCI-60 cell line screen, 48 h
[1] = system: HT-29
[2] = system: BT-549
[3] = system: Malme-3M
[4] = system: NCI-H226
[5] = system: NCI-H460
[6] = system: Hs-578T
[7] = system: MOLT-4
[8] = system: 786-0
[9] = system: CAKI-1
[10] = system: SF-539
[11] = system: DU-145
[12] = system: SF-295
[13] = system: MDA-MB-435
[14] = system: SNB-75
[15] = system: U-251
[16] = system: SNB-19
[17] = system: HCT-116
[18] = system: CCRF-CEM
[19] = system: UACC-62
[20] = system: UO-31
[21] = system: PC-3
[22] = system: T47D
[23] = system: A549
[24] = system: ACHN
[25] = system: SN12C
[26] = system: HCC 2998
[27] = system: LOX IMVI
[28] = system: NCI-H522
[29] = system: KM12
[30] = system: TK-10
[31] = system: HOP-62
[32] = system: NCI-H23
[33] = system: OVCAR-4
[34] = system: MCF7
[35] = system: UACC-257
[36] = system: MDA-N
[37] = system: SW-620
[38] = system: SK-MEL-5
[39] = system: OVCAR-8
[40] = system: OVCAR-3
[41] = system: A498
[42] = system: SK-OV-3
[43] = system: RXF 393
[44] = system: EKVX
[45] = system: HL-60
[46] = system: SK-MEL-28
[47] = system: SF-268
[48] = system: IGROV-1
[49] = system: OVCAR-5
[50] = system: NCI/ADR-RES
[51] = system: M14
[52] = system: COLO 205
[53] = system: HCT-15
[54] = system: HOP-92
[55] = system: K562
[56] = system: MDA-MB-231
[57] = system: SK-MEL-2
[58] = system: RPMI-8226

COc1ccc2c(c1)CCCN1Cc3ccccc3CC21 (stereo not given)
GI50 [1]: 32.7 µM (inactive)
GI50 [2]: > 100 µM (inactive)
GI50 [3]: 41.9 µM (inactive)
GI50 [4]: 31.5 µM (inactive)
GI50 [5]: 76 µM (inactive)
GI50 [6]: > 100 µM (inactive)
GI50 [7]: 54.2 µM (inactive)
GI50 [8]: 99.1 µM (inactive)
GI50 [9]: > 100 µM (inactive)
GI50 [10]: 92.7 µM (inactive)
GI50 [11]: > 100 µM (inactive)
GI50 [12]: 65.9 µM (inactive)
GI50 [13]: 54.1 µM (inactive)
GI50 [14]: 44.7 µM (inactive)
GI50 [15]: 75.2 µM (inactive)
GI50 [16]: 67.1 µM (inactive)
GI50 [17]: 52.7 µM (inactive)
GI50 [18]: 77.1 µM (inactive)
GI50 [19]: 91.6 µM (inactive)
GI50 [20]: 44.7 µM (inactive)
GI50 [21]: 78.9 µM (inactive)
GI50 [22]: 33.7 µM (inactive)
GI50 [23]: > 100 µM (inactive)
GI50 [24]: > 100 µM (inactive)
GI50 [25]: 64.1 µM (inactive)
GI50 [26]: 19.1 µM (inactive)
GI50 [27]: 43.5 µM (inactive)
GI50 [28]: > 100 µM (inactive)
GI50 [29]: 65 µM (inactive)
GI50 [30]: > 100 µM (inactive)
GI50 [31]: 40.8 µM (inactive)
GI50 [32]: > 100 µM (inactive)
GI50 [33]: > 100 µM (inactive)
GI50 [34]: > 100 µM (inactive)
GI50 [35]: 91.2 µM (inactive)
GI50 [36]: 38.2 µM (inactive)
GI50 [37]: 65.6 µM (inactive)
GI50 [38]: 22.5 µM (inactive)
GI50 [39]: > 100 µM (inactive)
GI50 [40]: 52.7 µM (inactive)
GI50 [41]: 27 µM (inactive)
GI50 [42]: > 100 µM (inactive)
GI50 [43]: 48.3 µM (inactive)
GI50 [44]: 98.4 µM (inactive)
GI50 [45]: 28.8 µM (inactive)
GI50 [46]: 62.1 µM (inactive)
GI50 [47]: > 100 µM (inactive)
GI50 [48]: 49.4 µM (inactive)
GI50 [49]: 78.2 µM (inactive)
GI50 [50]: > 100 µM (inactive)
GI50 [51]: 39.5 µM (inactive)
GI50 [52]: 40.7 µM (inactive)
GI50 [53]: > 100 µM
GI50 [54]: 30.7 µM (inactive)
GI50 [55]: 31.3 µM (inactive)
GI50 [56]: 91.4 µM (inactive)

Cn1c(=O)c2c(nc3n2CC(=O)N3CCCCl)n(C)c1=O
GI50 [1]: > 100 µM (inactive)
GI50 [2]: > 100 µM (inactive)
GI50 [4]: > 100 µM (inactive)
GI50 [5]: > 100 µM (inactive)
GI50 [6]: > 100 µM (inactive)
GI50 [7]: 83.8 µM (inactive)
GI50 [8]: > 100 µM (inactive)
GI50 [9]: > 100 µM (inactive)
GI50 [11]: > 100 µM (inactive)
GI50 [12]: > 100 µM (inactive)
GI50 [13]: > 100 µM (inactive)
GI50 [14]: > 100 µM (inactive)
GI50 [15]: > 100 µM (inactive)
GI50 [16]: > 100 µM (inactive)
GI50 [57]: > 100 µM (inactive)
GI50 [17]: > 100 µM (inactive)
GI50 [18]: > 100 µM (inactive)
GI50 [19]: > 100 µM (inactive)
GI50 [20]: > 100 µM (inactive)
GI50 [21]: > 100 µM (inactive)
GI50 [22]: > 100 µM (inactive)
GI50 [23]: > 100 µM (inactive)
GI50 [24]: > 100 µM (inactive)
GI50 [25]: > 100 µM (inactive)
GI50 [26]: > 100 µM (inactive)
GI50 [27]: > 100 µM (inactive)
GI50 [29]: > 100 µM (inactive)
GI50 [30]: > 100 µM (inactive)
GI50 [31]: > 100 µM (inactive)
GI50 [32]: > 100 µM (inactive)
GI50 [33]: > 100 µM (inactive)
GI50 [34]: > 100 µM (inactive)
GI50 [35]: > 100 µM (inactive)
GI50 [36]: > 100 µM (inactive)
GI50 [37]: > 100 µM (inactive)
GI50 [38]: > 100 µM (inactive)
GI50 [39]: > 100 µM (inactive)
GI50 [40]: > 100 µM (inactive)
GI50 [41]: > 100 µM (inactive)
GI50 [42]: > 100 µM (inactive)
GI50 [44]: > 100 µM (inactive)
GI50 [45]: > 100 µM (inactive)
GI50 [46]: > 100 µM (inactive)
GI50 [47]: > 100 µM (inactive)
GI50 [48]: > 100 µM (inactive)
GI50 [49]: > 100 µM (inactive)
GI50 [58]: > 100 µM (inactive)
GI50 [50]: > 100 µM (inactive)
GI50 [51]: > 100 µM (inactive)
GI50 [52]: > 100 µM (inactive)
GI50 [53]: > 100 µM
GI50 [54]: > 100 µM (inactive)
GI50 [55]: > 100 µM (inactive)
GI50 [56]: > 100 µM (inactive)
